Test results published in patent publication US7253154B2, “Substituted thiazolopyrimidines as xanthine oxidase inhibitors” (Nippon Chemiphar Co., Ltd., priority 2001, dated 2007).

Columns and labels:
[1] = target: T1, Cow milk Xanthine Oxidase (Bos taurus, UniProt P80457); assay: Xanthine oxidase inhibiting action, in vitro test (oxidation of xanthine, absorbance OD 290); type: biochemical; settings: Cow milk xanthine oxidase (Roche), xanthine substrate, 50 mM phosphate buffer pH 7.5, 37° C., 15 min
T1 construct: Cow milk Xanthine Oxidase (Roche); purchased Roche; host or cells: cow milk
Protocol: Pharmacological Experiment 1 (In Vitro Test)
1. Preparation of Test Sample
250 gL of each of the solutions of the test compound having different concentrations was added to 1 mL of a solution of Xanthine (SIGMA, 300 µM) in the 50 mM phosphor buffer (pH 7.5). The mixture was then pre-incubated at 37° C. for 10 min. Subsequently, to the pre-incubated mixture was added […] of Cow milk Xanthine Oxidase (Roche) diluted with the 50 mM phosphate buffer (pH 7.5) to give a solution of 30 mU concentration. The mixture was then kept at 37° C. for 15 min for performing a reaction. The reaction was terminated by addition of 1N hydrochloric acid. Subsequently, the absorbance ([…]) was measured by means of a spectrophotometer (HITACHI U-2000), to obtain the inhibition ratio.
The inhibition ratio was calculated according to the following formula: Inhibition ratio(%)=[1−(B−C)/(A−C)]×100
B: absorbance measured in the case of using test compound

xanthine oxidase = target: T2, xanthine oxidase (Mus musculus, UniProt Q00519); assay: In vivo test: uric acid value in plasma of mouse after oral administration; settings: ICR mouse, 3 mg/10 mL/kg single oral administration, blood collected after one hour
T2 construct: ICR mouse (Japan Charles River Co., Ltd., 6 W) was employed as test animal; from tissue; host or cells: living ICR mouse (whole animal; plasma uric acid measured)
Source text: The xanthine oxidase inhibiting action was further confirmed in vivo tests by measuring the uric acid concentration in a plasma obtained from mouse into which the compound of the invention had been orally administered. See Example 1-B, Table 21.
Pharmacological Experiment 2 (In Vivo Test)
1. Test Animals, and Grouping
ICR mouse (Japan Charles River Co., Ltd., 6 W) was employed as test animal. One group comprised mice, and a vehicle control group was set for each experiment.
2. Preparation and Administration of the Test Compound
The test compound was suspended in aqueous […] methylcellulose solution to for administration.
Dosage is 3 mg/10 mL/kg for each of the control groups and all test groups. The administration was made by single oral administration.
3. Procedure of Experiment
The test compound was orally administered once, and the whole blood was collected from main artery in the presence of heparin after one hour. From the collected whole blood was separated plasma in the conventional manner, and the plasma was subjected to measurement of uric acid value by the enzyme method by means of an automatic analytical apparatus (HITACHI 7060E).
The inhibition ratio was calculated according to the following formula: Inhibition ratio(%)=[…]
A: average uric acid value in plasma of the group into which the test compound was administered.
B: average uric acid value in plasma of the vehicle control group

T2 sequence (Q00519 whole entry): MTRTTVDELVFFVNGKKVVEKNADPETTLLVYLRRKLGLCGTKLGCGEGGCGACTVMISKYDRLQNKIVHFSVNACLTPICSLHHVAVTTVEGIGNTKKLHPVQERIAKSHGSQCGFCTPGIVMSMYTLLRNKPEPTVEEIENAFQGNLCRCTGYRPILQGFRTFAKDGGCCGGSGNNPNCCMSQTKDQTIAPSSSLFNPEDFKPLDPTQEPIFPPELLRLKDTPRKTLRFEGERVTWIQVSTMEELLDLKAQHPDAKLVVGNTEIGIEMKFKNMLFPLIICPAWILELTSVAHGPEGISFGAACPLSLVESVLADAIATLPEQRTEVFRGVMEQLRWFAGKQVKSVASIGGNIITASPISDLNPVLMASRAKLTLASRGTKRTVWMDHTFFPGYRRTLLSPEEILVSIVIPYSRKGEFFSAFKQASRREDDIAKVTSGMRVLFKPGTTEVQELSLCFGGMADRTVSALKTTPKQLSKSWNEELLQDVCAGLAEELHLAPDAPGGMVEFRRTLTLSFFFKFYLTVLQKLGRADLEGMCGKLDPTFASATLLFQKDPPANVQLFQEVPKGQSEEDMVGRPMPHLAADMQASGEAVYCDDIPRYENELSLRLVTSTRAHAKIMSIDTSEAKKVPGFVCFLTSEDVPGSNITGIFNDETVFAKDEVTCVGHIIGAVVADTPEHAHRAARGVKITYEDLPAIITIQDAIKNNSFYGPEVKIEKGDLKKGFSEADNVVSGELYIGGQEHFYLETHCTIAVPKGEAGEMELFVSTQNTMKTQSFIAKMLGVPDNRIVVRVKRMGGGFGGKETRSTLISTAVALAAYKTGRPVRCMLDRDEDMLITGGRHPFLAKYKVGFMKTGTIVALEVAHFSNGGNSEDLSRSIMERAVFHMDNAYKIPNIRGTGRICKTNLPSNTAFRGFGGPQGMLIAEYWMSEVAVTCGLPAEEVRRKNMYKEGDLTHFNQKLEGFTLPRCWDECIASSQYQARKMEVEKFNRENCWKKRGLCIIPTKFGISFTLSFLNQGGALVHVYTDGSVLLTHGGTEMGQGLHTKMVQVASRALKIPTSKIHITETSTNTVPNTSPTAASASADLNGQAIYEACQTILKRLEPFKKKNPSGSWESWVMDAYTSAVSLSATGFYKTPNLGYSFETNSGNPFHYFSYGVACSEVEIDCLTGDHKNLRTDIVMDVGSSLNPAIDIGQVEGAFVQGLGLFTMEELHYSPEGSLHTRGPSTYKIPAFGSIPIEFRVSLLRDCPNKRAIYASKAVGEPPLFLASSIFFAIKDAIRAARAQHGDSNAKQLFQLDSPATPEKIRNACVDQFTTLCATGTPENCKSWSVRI
T1 sequence (P80457 whole entry): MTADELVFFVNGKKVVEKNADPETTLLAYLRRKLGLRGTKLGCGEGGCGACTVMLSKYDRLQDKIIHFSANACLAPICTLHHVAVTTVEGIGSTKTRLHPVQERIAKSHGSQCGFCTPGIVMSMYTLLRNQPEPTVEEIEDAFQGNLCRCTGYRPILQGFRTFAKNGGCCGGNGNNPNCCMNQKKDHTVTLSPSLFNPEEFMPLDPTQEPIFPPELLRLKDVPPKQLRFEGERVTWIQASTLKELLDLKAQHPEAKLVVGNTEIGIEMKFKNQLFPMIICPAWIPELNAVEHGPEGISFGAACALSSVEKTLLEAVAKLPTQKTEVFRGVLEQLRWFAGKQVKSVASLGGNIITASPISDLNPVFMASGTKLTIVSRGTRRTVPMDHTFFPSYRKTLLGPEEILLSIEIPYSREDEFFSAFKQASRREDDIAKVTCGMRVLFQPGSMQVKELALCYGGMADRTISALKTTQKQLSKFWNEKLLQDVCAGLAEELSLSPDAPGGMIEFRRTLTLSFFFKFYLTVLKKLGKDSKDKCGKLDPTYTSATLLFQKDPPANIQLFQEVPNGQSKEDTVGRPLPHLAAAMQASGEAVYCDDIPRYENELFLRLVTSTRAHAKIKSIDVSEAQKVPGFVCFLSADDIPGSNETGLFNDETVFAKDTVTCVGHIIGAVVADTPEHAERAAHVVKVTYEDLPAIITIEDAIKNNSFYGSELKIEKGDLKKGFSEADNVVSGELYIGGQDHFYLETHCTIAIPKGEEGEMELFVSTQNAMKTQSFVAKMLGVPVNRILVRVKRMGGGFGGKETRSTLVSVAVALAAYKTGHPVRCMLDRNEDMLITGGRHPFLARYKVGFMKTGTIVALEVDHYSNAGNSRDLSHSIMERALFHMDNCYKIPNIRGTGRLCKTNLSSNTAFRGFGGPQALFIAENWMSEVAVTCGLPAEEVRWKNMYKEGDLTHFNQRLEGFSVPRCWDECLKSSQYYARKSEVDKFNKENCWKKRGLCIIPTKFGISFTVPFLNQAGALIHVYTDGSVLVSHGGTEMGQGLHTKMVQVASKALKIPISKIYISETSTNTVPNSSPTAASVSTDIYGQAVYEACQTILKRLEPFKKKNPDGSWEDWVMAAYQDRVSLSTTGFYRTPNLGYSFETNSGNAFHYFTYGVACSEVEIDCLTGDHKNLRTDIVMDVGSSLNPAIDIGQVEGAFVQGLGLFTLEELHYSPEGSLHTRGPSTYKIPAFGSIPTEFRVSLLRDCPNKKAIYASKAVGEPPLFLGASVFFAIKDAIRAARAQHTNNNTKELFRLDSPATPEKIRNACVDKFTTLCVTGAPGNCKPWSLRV

Row | Structure (SMILES) | IC50 [1] [µM] | Inhibition ratio (plasma uric acid value vs vehicle control group) (xanthine oxidase) [%]
1 | CC(C)COc1ccc(-c2nc3ncnc(Cl)c3[nH]2)cc1[N+](=O)[O-] [Example 1-A, 8-(4-Isobutoxy-3-nitrophenyl)-6-chloropurine] | 0.0632 | 
2 | CC(C)COc1ccc(-c2nc3c(N)ncnc3o2)cc1[N+](=O)[O-] [Example 1-B, 6-amino-8-(4-isobutoxy-3-nitrophenyl)oxazolo[4,5-d]pyrimidine] | 0.0448 | 60.7
3 | CC(C)COc1ccc(-c2nc3ncnc(O)c3[nH]2)cc1[N+](=O)[O-] [Example 2, 8-(4-Isobutoxy-3-nitrophenyl)-6-hydroxypurine] | 0.0111 | 
4 | CC(C)COc1ccc(-c2nc3ncnc(N)c3[nH]2)cc1[N+](=O)[O-] [Example 6, 6-Amino-8-(4-isobutoxy-3-nitrophenyl)purine] | 0.0759 | 63.8
5 | CC(C)COc1ccc(-c2nc3c(O)cccc3[nH]2)cc1[N+](=O)[O-] [Example 7, 4-Hydroxy-2-(4-isobutoxy-3-nitrophenyl)-1H-benzimidazole] | 0.102 | 
6 | CC(C)COc1ccc(-c2nc3cccc(C(=O)O)c3o2)cc1[N+](=O)[O-] [Example 8, 2-(4-Isobutoxy-3-nitrophenyl)benzoxazole-7carboxylic acid] | 0.0186 | 56.8
7 | CC(C)COc1ccc(-c2nc3ccncc3[nH]2)cc1[N+](=O)[O-] [Example 9, 2-(4-Isobutoxy-3-nitrophenyl)-3H-imidazo[4,5-c]pyridine] | 0.0584 | 
8 | CC(C)COc1ccc(-c2nc3cccc(C(=O)O)c3s2)cc1C#N [Example 10, 2-(3-Cyano-4-isobutyloxyphenyl)-1,3-benzothiazole-7-carboxylic acid] | 0.05 | 56.1
9 | CC(C)COc1ccc(-c2nc3c(C(=O)O)cccc3[nH]2)cc1C#N [Example 11, 2-(3-Cyano-4-isobutyloxyphenyl)benzimidazole-7-carboxylic acid] | 0.0223 | 51.4
10 | CC(C)COc1ccc(-c2nc3cccc(O)c3s2)cc1C#N [Example 12, 2-(3-Cyano-4-isobutyloxyphenyl)-7-hydroxy 1,3-benzothiazole] | 0.161 | 
